Each cell line was assayed with CC1=CC(=C(N1C2=CC=C(C=C2)Cl)C)C(=O)CN3CCCCC3 [IU1-47] (assay: relative viability (nuclei count vs DMSO), 5 days (fraction); higher = more cells survive). Settings: 0.08 µM.
Outline: (§1)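 Lung cancer cell lines in 1536-well plates were kept overnight at 37 °C, then pinned with five library-drug doses (not always all listed) spaced by √10 on vehicle-anchored plates. After 5 days without medium change, cells were fixed, permeabilised and Hoechst-stained in one step, imaged at 4×, and nuclei were counted with MetaXpress. Viability is treated-well nuclei divided by vehicle-well nuclei, taken as the median over plates. Plates passed only with control CV below 25% and at least one doubling.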

Row | Cell Line | relative viability
1 | NCI-H1915 | 0.995
2 | HCC-827 | 1.09
3 | LXF-289 | 1.08
4 | NCI-H23 | 0.93
5 | NCI-H1299 | 0.995
6 | NCI-H647 | 1.07
7 | CAL-12T | 0.916
8 | NCI-H1651 | 0.978
9 | EPLC-272H | 1.02
10 | NCI-H2228 | 1.04
11 | NCI-H1792 | 0.847
12 | NCI-H1355 | 1.01
13 | NCI-H3122 | 1.07
14 | NCI-H1437 | 1.02
15 | NCI-H1755 | 1.11
16 | NCI-H2023 | 0.951
17 | HCC-15 | 1.1
18 | NCI-H1793 | 0.859
19 | PC-14 | 1.04
20 | EKVX | 1.23
21 | LC-2-ad | 0.981
22 | NCI-H1563 | 0.985
23 | NCI-H1944 | 1.1
24 | NCI-H1975 | 0.963
25 | RERF-LC-KJ | 1.06
26 | ABC-1 | 1.03
27 | NCI-H358 | 1
28 | NCI-H650 | 1.15
29 | PC-3 [JPC-3] | 1.09

Same assay, conditions: 0.253 µM

Row | Cell Line | relative viability
30 | NCI-H1915 | 0.989
31 | HCC-827 | 1.05
32 | LXF-289 | 1.06
33 | NCI-H23 | 0.986
34 | NCI-H1299 | 1.05
35 | NCI-H647 | 1.05
36 | CAL-12T | 0.919
37 | NCI-H1651 | 0.995
38 | EPLC-272H | 1.05
39 | NCI-H2228 | 1.14
40 | NCI-H1792 | 0.796
41 | NCI-H1355 | 1.04
42 | NCI-H3122 | 1.07
43 | NCI-H1437 | 0.94
44 | NCI-H1755 | 1.11
45 | NCI-H2023 | 0.949
46 | HCC-15 | 1.08
47 | NCI-H1793 | 0.83
48 | PC-14 | 1.05
49 | EKVX | 1.12
50 | LC-2-ad | 0.997
51 | NCI-H1563 | 0.983
52 | NCI-H1944 | 1.02
53 | NCI-H1975 | 0.943
54 | RERF-LC-KJ | 1.04
55 | ABC-1 | 1.01
56 | NCI-H358 | 0.912
57 | NCI-H650 | 1.08
58 | PC-3 [JPC-3] | 1.06

Same assay, conditions: 0.8 µM

Row | Cell Line | relative viability
59 | NCI-H1915 | 1.04
60 | HCC-827 | 1.05
61 | LXF-289 | 1.08
62 | NCI-H23 | 1.15
63 | NCI-H1299 | 1.06
64 | NCI-H647 | 0.843
65 | CAL-12T | 1.03
66 | NCI-H1651 | 1.01
67 | EPLC-272H | 0.933
68 | NCI-H2228 | 1.06
69 | NCI-H1792 | 0.889
70 | NCI-H1355 | 1.03
71 | NCI-H3122 | 1.01
72 | NCI-H1437 | 1.08
73 | NCI-H1755 | 1.09
74 | NCI-H2023 | 1.06
75 | HCC-15 | 1.05
76 | NCI-H1793 | 1.04
77 | PC-14 | 1.09
78 | EKVX | 1.03
79 | LC-2-ad | 1.07
80 | NCI-H1563 | 1.12
81 | NCI-H1944 | 0.947
82 | NCI-H1975 | 1.06
83 | RERF-LC-KJ | 1.14
84 | ABC-1 | 0.888
85 | NCI-H358 | 0.981
86 | NCI-H650 | 0.978
87 | PC-3 [JPC-3] | 1.11

Same assay, conditions: 2.53 µM

Row | Cell Line | relative viability
88 | HCC-827 | 1.08
89 | LXF-289 | 0.982
90 | NCI-H23 | 0.908
91 | NCI-H1299 | 1
92 | NCI-H647 | 0.985
93 | CAL-12T | 0.826
94 | NCI-H1651 | 0.918
95 | NCI-H2228 | 0.986
96 | NCI-H1792 | 0.862
97 | NCI-H3122 | 1.04
98 | NCI-H1437 | 0.922
99 | NCI-H1755 | 1.04
100 | NCI-H2023 | 0.851
101 | HCC-15 | 0.678
102 | PC-14 | 0.84
103 | EKVX | 0.859
104 | LC-2-ad | 0.673
105 | NCI-H1563 | 0.944
106 | NCI-H1944 | 0.902
107 | NCI-H1975 | 0.968
108 | RERF-LC-KJ | 0.902
109 | NCI-H358 | 0.89
110 | NCI-H650 | 0.836
111 | PC-3 [JPC-3] | 0.705

Same assay, conditions: 8 µM

Row | Cell Line | relative viability
112 | NCI-H1915 | 0.905
113 | HCC-827 | 1.09
114 | LXF-289 | 0.958
115 | NCI-H23 | 0.857
116 | NCI-H1299 | 1.02
117 | NCI-H647 | 0.923
118 | CAL-12T | 0.879
119 | NCI-H1651 | 0.983
120 | EPLC-272H | 0.806
121 | NCI-H2228 | 0.709
122 | NCI-H1792 | 0.486
123 | NCI-H1355 | 0.881
124 | NCI-H3122 | 0.974
125 | NCI-H1437 | 0.936
126 | NCI-H1755 | 0.958
127 | NCI-H2023 | 1.27
128 | HCC-15 | 0.976
129 | NCI-H1793 | 0.864
130 | PC-14 | 0.933
131 | EKVX | 0.943
132 | LC-2-ad | 0.889
133 | NCI-H1563 | 1.05
134 | NCI-H1944 | 0.852
135 | NCI-H1975 | 0.842
136 | RERF-LC-KJ | 0.946
137 | ABC-1 | 0.876
138 | NCI-H358 | 0.848
139 | NCI-H650 | 0.876
140 | PC-3 [JPC-3] | 0.982

What follows are cell lines tested with Cc1nc(C(=O)NCC(=O)O)c(O)c2ccc(Oc3ccccc3)cc12 [FG-4592] in the same assay as above. Settings: 0.08 µM.
Outline: as §1

Row | Cell Line | relative viability
141 | NCI-H1915 | 0.951
142 | HCC-827 | 1.03
143 | LXF-289 | 1.04
144 | NCI-H23 | 0.965
145 | NCI-H1299 | 0.974
146 | NCI-H647 | 0.916
147 | CAL-12T | 0.973
148 | NCI-H1651 | 0.973
149 | EPLC-272H | 0.886
150 | NCI-H2228 | 0.905
151 | NCI-H1792 | 0.763
152 | NCI-H1355 | 0.965
153 | NCI-H3122 | 1.03
154 | NCI-H1437 | 1
155 | NCI-H1755 | 0.958
156 | NCI-H2023 | 0.919
157 | HCC-15 | 0.978
158 | NCI-H1793 | 0.569
159 | PC-14 | 1.07
160 | EKVX | 1.03
161 | LC-2-ad | 0.997
162 | NCI-H1563 | 0.946
163 | NCI-H1944 | 0.932
164 | NCI-H1975 | 1
165 | RERF-LC-KJ | 1.03
166 | ABC-1 | 0.814
167 | NCI-H358 | 1.02
168 | NCI-H650 | 0.836
169 | PC-3 [JPC-3] | 1.06

Same assay, conditions: 0.253 µM

Row | Cell Line | relative viability
170 | NCI-H1915 | 0.959
171 | HCC-827 | 0.988
172 | LXF-289 | 0.941
173 | NCI-H23 | 0.833
174 | NCI-H1299 | 0.98
175 | NCI-H647 | 0.94
176 | CAL-12T | 0.864
177 | NCI-H1651 | 0.941
178 | EPLC-272H | 0.777
179 | NCI-H2228 | 0.868
180 | NCI-H1792 | 0.725
181 | NCI-H1355 | 0.922
182 | NCI-H3122 | 0.957
183 | NCI-H1437 | 0.929
184 | NCI-H1755 | 0.941
185 | NCI-H2023 | 0.866
186 | HCC-15 | 0.922
187 | NCI-H1793 | 0.812
188 | PC-14 | 0.927
189 | EKVX | 0.809
190 | LC-2-ad | 0.924
191 | NCI-H1563 | 0.958
192 | NCI-H1944 | 0.872
193 | NCI-H1975 | 0.881
194 | RERF-LC-KJ | 0.922
195 | ABC-1 | 0.824
196 | NCI-H358 | 0.835
197 | NCI-H650 | 0.964
198 | PC-3 [JPC-3] | 0.948

Same assay, conditions: 0.8 µM

Row | Cell Line | relative viability
199 | NCI-H1915 | 0.918
200 | HCC-827 | 1.02
201 | LXF-289 | 1.06
202 | NCI-H23 | 0.71
203 | NCI-H1299 | 0.982
204 | NCI-H647 | 0.837
205 | CAL-12T | 1.05
206 | NCI-H1651 | 0.921
207 | EPLC-272H | 0.7
208 | NCI-H2228 | 0.899
209 | NCI-H1792 | 0.693
210 | NCI-H3122 | 1.06
211 | NCI-H1437 | 0.991
212 | NCI-H1755 | 0.916
213 | NCI-H2023 | 0.857
214 | HCC-15 | 0.954
215 | PC-14 | 0.99
216 | EKVX | 0.932
217 | LC-2-ad | 0.973
218 | NCI-H1563 | 0.922
219 | NCI-H1944 | 0.685
220 | NCI-H1975 | 0.9
221 | RERF-LC-KJ | 1
222 | ABC-1 | 0.924
223 | NCI-H358 | 1.16
224 | NCI-H650 | 0.737
225 | PC-3 [JPC-3] | 0.987

Same assay, conditions: 2.53 µM

Row | Cell Line | relative viability
226 | NCI-H1915 | 0.955
227 | HCC-827 | 1.02
228 | LXF-289 | 0.981
229 | NCI-H23 | 0.782
230 | NCI-H1299 | 0.99
231 | NCI-H647 | 0.933
232 | CAL-12T | 0.906
233 | NCI-H1651 | 0.961
234 | EPLC-272H | 0.901
235 | NCI-H2228 | 1.02
236 | NCI-H1792 | 0.861
237 | NCI-H1355 | 0.926
238 | NCI-H3122 | 1.07
239 | NCI-H1437 | 0.972
240 | NCI-H1755 | 1.02
241 | NCI-H2023 | 0.922
242 | HCC-15 | 0.95
243 | NCI-H1793 | 0.745
244 | PC-14 | 0.982
245 | EKVX | 0.941
246 | LC-2-ad | 0.925
247 | NCI-H1563 | 0.988
248 | NCI-H1944 | 0.954
249 | NCI-H1975 | 0.839
250 | RERF-LC-KJ | 1.02
251 | ABC-1 | 0.949
252 | NCI-H358 | 0.896
253 | NCI-H650 | 0.912
254 | PC-3 [JPC-3] | 1.07

Same assay, conditions: 8 µM

Row | Cell Line | relative viability
255 | NCI-H1915 | 1.02
256 | HCC-827 | 1.03
257 | LXF-289 | 1.09
258 | NCI-H23 | 0.829
259 | NCI-H1299 | 1.02
260 | NCI-H647 | 0.727
261 | CAL-12T | 0.894
262 | NCI-H1651 | 0.915
263 | EPLC-272H | 0.889
264 | NCI-H2228 | 0.644
265 | NCI-H1792 | 0.868
266 | NCI-H1355 | 0.912
267 | NCI-H3122 | 1.03
268 | NCI-H1437 | 0.822
269 | NCI-H1755 | 1.03
270 | NCI-H2023 | 0.88
271 | HCC-15 | 1.05
272 | NCI-H1793 | 0.762
273 | PC-14 | 0.97
274 | EKVX | 0.992
275 | LC-2-ad | 1.09
276 | NCI-H1563 | 0.888
277 | NCI-H1944 | 0.852
278 | NCI-H1975 | 0.861
279 | RERF-LC-KJ | 0.906
280 | ABC-1 | 0.77
281 | NCI-H358 | 0.989

From the supplement of paper PMC10307832
